Consider two compounds from patent publication US12661353B2, “SPT5 inhibitors and uses thereof” (Yeda Research and Development Co. Ltd., priority 2020, dated 2026).

The target of assay [1] is T1, Rpb1 CC domain (His-Rpb1) (Homo sapiens, UniProt P24928).
T1 construct: His tag; made in house; host or cells: E. coli; purified on nickel agarose beads
In words: Binding assay by intrinsic fluorescence of purified His-Rpb1. Conditions: read-out: IC50, decrease of intrinsic fluorescence of Rpb1 (Pol II). As to the method:
Binding assay—In order to measure binding of the indicated compound to Spt5 and/or Pol II; Spt5-Spt4 or Rpb1 fused to a histidine (His) tag were expressed in E. coli (SEQ ID Nos: 2-3, 5-6 and 81) and purified on nickel agarose beads as described in Ashkenazi et al. 2016. The proteins were incubated for 10 minutes with increasing concentrations of the indicated compound in a black 384 wells microplate in a total volume of 20 μl. Binding was assessed by measuring the changes in the intrinsic fluorescence (280 nm) using Cytation™ 5 (BioTek).
Two identified compounds, SPI-21 and SPI-18, were further validated for their direct interaction with either Spt5 or Rpb1 CC domain. […] Using the purified proteins, fluorescence intensity measurements were performed in the presence of increasing concentrations of SPI-21 or SPI-18. This method analyzes binding by monitoring the changes in the intrinsic fluorescence of the proteins as a consequence of conformational changes. […]
Direct interaction with either the Spt5 or the Rpb1 CC domain of SPI-21 and SPI-18 was further validated. […] Using the purified proteins, fluorescence intensity measurements were performed in the presence of increasing concentrations of SPI-21 and SPI-18. This method analyzes binding by monitoring the changes in the intrinsic fluorescence of the proteins as a consequence of conformational changes. […]

Another assay relates to mutant (Q111) Htt. The assay is described as follows: Htt mRNA levels in Q111 striatal cells, qPCR. Also: key: + represent a statistically significant effect. Conditions: Q111 striatal cells, 48 hours. The class given is cell-based, mouse. As to the method: Cell culture—HEK293T, HeLa, MCF7, Jurkat and mouse embryonic fibroblasts (MEFs) cells were grown and maintained in Dulbecco's modified Eagle's medium supplemented with 10% fetal calf serum (Gibco) and 1% penicillin-streptomycin. To avoid NF-κB activity, HeLa cells were kept from reaching confluence and re-plated no more than 10 times following initial thawing. To induce NF-κB activity, cells were treated with […] recombinant human TNF-α (Peprotech) for the indicated times. STHdh Q111 and STHdh Q7 striatal cell lines (Coriell Institute for Medical Research) were grown in Dulbecco's modified Eagle's medium supplemented with 10% fetal calf serum (Gibco), 1% penicillin-streptomycin and 0.4 mg/ml G418 at 33° C. The cells were re-plated no more than 5-6 times, as recommended.
Huntington's disease (HD) is an inherited genetic disorder caused by expansion trinucleotide CAG repeats (36 and higher) encoding glutamine (Q) in the huntingtin (Htt) gene. Expression of the mutant gene in neurons of the striatum and the frontal cortex leads to degeneration of neuronal cells that control body movements, emotions and intellect. […] To examine the potential effect of SPIs in this context, striatal cell lines established from wild type (Q7) or from mutant (Q111) Htt knock-in mice were used. In these cell lines the coding region of the first exon of the mouse Htt gene was replaced with the same region of human wild type (Q7) or mutant (Q111) Htt, as schematically shown in FIG. 6A. The two cell lines were treated for 48 hours with the identified SPIs and following the levels of Htt mRNA were determined.
The compounds were tested as described in Example 4 hereinabove. In brief, Q111 (or Q7, where indicated) expressing Striatal cells were treated with the tested compound at the indicated concentrations for 48 hours. Then, RNA was extracted and levels of Htt mRNA were determined by qRT-PCR and normalized to β-actin. The data was analysed using GraphPad Prism software.
A general note: Real-time PCR tracks product formation cycle by cycle.

T1 sequence (P24928 8-370): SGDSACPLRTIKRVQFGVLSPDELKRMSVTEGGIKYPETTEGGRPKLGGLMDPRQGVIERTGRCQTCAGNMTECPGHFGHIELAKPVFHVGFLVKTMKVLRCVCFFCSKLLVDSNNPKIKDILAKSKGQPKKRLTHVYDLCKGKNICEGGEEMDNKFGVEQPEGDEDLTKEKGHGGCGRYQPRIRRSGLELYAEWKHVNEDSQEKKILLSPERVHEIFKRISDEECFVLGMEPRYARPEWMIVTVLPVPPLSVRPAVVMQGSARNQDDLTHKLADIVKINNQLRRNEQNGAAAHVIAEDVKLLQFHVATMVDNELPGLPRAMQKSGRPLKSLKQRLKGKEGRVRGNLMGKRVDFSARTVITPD

On to `Nc1ccccc1SC(CC(=O)c1cccs1)c1cccs1` (stereo not shown) [SPI-18], for which the half-maximal inhibitory concentration (IC50) (in general, the midpoint of a concentration-inhibition curve) in assay [1] was found to be 76 µM. Besides, in the assay with mutant (Q111) Htt, the “Down-regulating transcription of Mutant Htt (i.e. inhibiting transcription elongation of mutant Htt gene induced by Spt5)” value is recorded as “+”.
The like results for `COc1ccc(C=CC(=O)c2cc(O)ccc2O)cc1` [SPI-21] were, in that order, 23 µM and “+”.
